Experiment [1] concerns the target T1, Thymidine phosphorylase (Escherichia coli K-12, UniProt P07650). Put plainly: Inhibition of [3H]methylthymidine binding to Escherichia coli thymidine phosphorylase after 20 mins by scintillation counting.
The target in experiment [2] is T1, Thymidine phosphorylase. Put plainly: Inhibition of [3H]methylthymidine binding to Escherichia coli thymidine phosphorylase after 10 mins by scintillation counting.
Experiment [3] addresses Thymidine phosphorylase (Escherichia coli K-12) (UniProt P07650). Put plainly: Inhibition of [3H]methylthymidine binding to Escherichia coli thymidine phosphorylase at 20 uM after 20 mins by scintillation counting.
Experiment [4] shares this target. Put plainly: Inhibition of [3H]methylthymidine binding to Escherichia coli thymidine phosphorylase at 100 uM after 20 mins by scintillation counting.

One may read the IC50 as the concentration that gives 50% inhibition. A high value points to lower potency. By inhibition is commonly meant the relative decrease from the control value, in per cent. Low readings indicate a response near the control, high ones a response far below the control.

T1 sequence (P07650 whole entry): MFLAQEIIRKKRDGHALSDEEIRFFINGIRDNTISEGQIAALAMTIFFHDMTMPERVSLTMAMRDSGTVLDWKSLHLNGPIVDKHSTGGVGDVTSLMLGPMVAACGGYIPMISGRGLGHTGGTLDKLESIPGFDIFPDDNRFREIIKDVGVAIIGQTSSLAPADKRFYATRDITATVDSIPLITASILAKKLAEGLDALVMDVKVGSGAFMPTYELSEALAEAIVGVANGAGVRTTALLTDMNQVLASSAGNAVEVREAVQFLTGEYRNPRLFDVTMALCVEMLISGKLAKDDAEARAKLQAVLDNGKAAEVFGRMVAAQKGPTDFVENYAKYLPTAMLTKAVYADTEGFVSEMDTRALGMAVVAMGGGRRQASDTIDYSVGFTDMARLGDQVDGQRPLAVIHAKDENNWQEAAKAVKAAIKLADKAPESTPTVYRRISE
Chain of Thymidine phosphorylase (Escherichia coli K-12) (P07650 whole entry, looked up): as the sequence (P07650 whole entry) above

The compound `O=c1[nH]c(=O)c2cn(CCCCCCCCP(=O)(O)O)cc2[nH]1` registered an IC50 in experiment [1] of 12 µM.

As for `O=c1[nH]c(=O)c2cn(CCCCCCCCn3cc4[nH]c(=O)[nH]c(=O)c4c3)cc2[nH]1`, the half-inhibitory concentration (IC50) in experiment [1] was 3.5 µM.

Take `O=c1[nH]c(=O)n(CCCCCCCCP(=O)(O)O)c2[nH]ccc12`: in experiment [2], the IC50 stood at 11.4 µM. The inhibition in experiment [3] worked out at 48%; in experiment [4], 83%.

Turning to `O=c1[nH]c(=O)n(CCCCCCCCP(=O)(O)O)c2c[nH]cc12`, the IC50 in experiment [1] came to 6.8 µM.

These data come from ChEMBL document CHEMBL1641495, “8-Aza-7,9-dideazaxanthine acyclic nucleoside phosphonate inhibitors of thymidine phosphorylase” (Bioorg Med Chem Lett, 2011).
